Among the data in PubChem BioAssay (NCI) are GI50 and TGI values, retold here.

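Five compound concentrations were applied to cells in 96-well plates for 48 hours; endpoints were derived by simple linear interpolation of the resulting dose-response curve. Here, GI50 denotes the concentration required for 50% inhibition of growth. TGI: concentration producing complete growth inhibition.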

Some test systems named below: SNB-75 CNS; NCI/ADR-RES ovarian; SF-539 CNS; OVCAR-8 ovarian; DU-145 prostate; MDA-MB-435; HCC-2998 colon; CCRF-CEM leukemia; OVCAR-4 ovarian; OVCAR-3 ovarian.
Test in all cases: DTP human tumour cell line panel, 48 h

The GI50 is the concentration that inhibits growth by half. Usually TGI stands for the concentration giving total growth inhibition. Regarding `O=[N+]([O-])c1ccc2nc(N/N=C/c3ccc(O)cc3)sc2c1`, the GI50 with SNB-75 CNS was 5160 nM; with NCI/ADR-RES ovarian, 3860 nM; in the test on SF-539 CNS, 3200 nM; in the test with OVCAR-8 ovarian it was 3750 nM; in the test with DU-145 prostate it was 3960 nM; in the test with MDA-MB-435, 3610 nM. Besides, the GI50 in the test with HCC-2998 colon was 7080 nM; with CCRF-CEM leukemia it was 3280 nM; in the test with OVCAR-4 ovarian, 3920 nM; in the test on OVCAR-3 ovarian, 3400 nM. Further, the TGI with SNB-75 CNS is 56100 nM; with NCI/ADR-RES ovarian it was above 100000 nM; in the test on SF-539 CNS, above 100000 nM; in the test on OVCAR-8 ovarian, 32200 nM; with DU-145 prostate, 38100 nM; in the test on MDA-MB-435, 91900 nM. The TGI was above 100000 nM in the test with HCC-2998 colon, above 100000 nM in the test on CCRF-CEM leukemia, 51800 nM in the test with OVCAR-4 ovarian and 14600 nM in the test with OVCAR-3 ovarian.

Regarding `O=[N+]([O-])c1ccc(N(CCO)CCO)c2c1no[n+]2[O-]`, the GI50 in the test with SNB-75 CNS was 961 nM; with NCI/ADR-RES ovarian, 1440 nM; with SF-539 CNS, 1260 nM; with OVCAR-8 ovarian it was 1370 nM; in the test with DU-145 prostate, 1680 nM; in the test with MDA-MB-435, 1510 nM. Besides, the GI50 with HCC-2998 colon is 1260 nM; in the test on CCRF-CEM leukemia, 704 nM; in the test on OVCAR-4 ovarian, 1650 nM; in the test on OVCAR-3 ovarian, 1510 nM. For the same molecule, the total growth inhibition concentration (TGI) in the test on SNB-75 CNS amounted to 5470 nM; with NCI/ADR-RES ovarian it was 6410 nM; in the test on SF-539 CNS it was 2770 nM; in the test on OVCAR-8 ovarian, 7020 nM; in the test on DU-145 prostate it was 5640 nM; in the test on MDA-MB-435 it was 4870 nM. Moreover, the TGI came to 3460 nM with HCC-2998 colon, 4710 nM in the test with CCRF-CEM leukemia, 6620 nM with OVCAR-4 ovarian and 3910 nM in the test on OVCAR-3 ovarian.

As for `Cc1ccnc2c1NC(=O)c1cccnc1N2C1CC1`, the GI50 in the test with SNB-75 CNS is 54400 nM; with NCI/ADR-RES ovarian, above 100000 nM; in the test with SF-539 CNS, above 100000 nM; with OVCAR-8 ovarian it was above 100000 nM; in the test with DU-145 prostate it was above 100000 nM; in the test with MDA-MB-435 it was above 100000 nM. Also, the GI50 in the test on HCC-2998 colon, in the test on CCRF-CEM leukemia, in the test with OVCAR-4 ovarian and in the test on OVCAR-3 ovarian was above 100000 nM in each case. For the same molecule, the total growth inhibition concentration (TGI) in the test with SNB-75 CNS, with NCI/ADR-RES ovarian, in the test on SF-539 CNS, in the test on OVCAR-8 ovarian, in the test on DU-145 prostate and with MDA-MB-435 was above 100000 nM in each case. Moreover, the TGI in the test with HCC-2998 colon, in the test with CCRF-CEM leukemia, in the test on OVCAR-4 ovarian and with OVCAR-3 ovarian was above 100000 nM in each case.

With `N#CC1=C(N)Oc2c(sc3c(F)cccc23)C1c1ccc([N+](=O)[O-])cc1` (stereo not given), the 50% growth inhibitory concentration (GI50) with SNB-75 CNS is 115 nM; with NCI/ADR-RES ovarian it was 58.9 nM; with SF-539 CNS, 188 nM; with OVCAR-8 ovarian it was 258 nM; in the test with DU-145 prostate, 340 nM; in the test on MDA-MB-435 it was 27.2 nM. Besides, the GI50 is 307 nM in the test on HCC-2998 colon, 179 nM in the test with CCRF-CEM leukemia, 312 nM in the test on OVCAR-4 ovarian and 185 nM in the test on OVCAR-3 ovarian. Also, the total growth inhibition concentration (TGI) with SNB-75 CNS was 445 nM; in the test on NCI/ADR-RES ovarian, 734 nM; in the test on SF-539 CNS, 524 nM; in the test with OVCAR-8 ovarian it was 1780 nM; in the test with DU-145 prostate, 1380 nM; in the test with MDA-MB-435, 84.8 nM. In addition, the TGI turned out to be 1460 nM in the test with HCC-2998 colon, 3230 nM in the test with CCRF-CEM leukemia, 1900 nM with OVCAR-4 ovarian and 1060 nM with OVCAR-3 ovarian.

Take `C=CC(=O)Nc1cc2c(Nc3ccc(OCc4ccccn4)c(Cl)c3)ncnc2cc1OCCN1CCOCC1`: the GI50 is 2090 nM with SNB-75 CNS; 3770 nM in the test with NCI/ADR-RES ovarian; 2630 nM in the test with SF-539 CNS; 5260 nM in the test on OVCAR-8 ovarian; 502 nM in the test on DU-145 prostate; 5940 nM with MDA-MB-435. Moreover, the GI50 in the test on HCC-2998 colon was 2200 nM; in the test on CCRF-CEM leukemia it was 2980 nM; in the test with OVCAR-4 ovarian, 5900 nM; with OVCAR-3 ovarian it was 1160 nM. Further, the TGI in the test on SNB-75 CNS was above 74300 nM; with NCI/ADR-RES ovarian it was above 100000 nM; in the test on SF-539 CNS it was above 100000 nM; in the test with OVCAR-8 ovarian, above 100000 nM; with DU-145 prostate, above 100000 nM; in the test with MDA-MB-435, above 86500 nM. Besides, the TGI in the test on HCC-2998 colon is 11100 nM; with CCRF-CEM leukemia it was above 100000 nM; with OVCAR-4 ovarian it was above 100000 nM; in the test with OVCAR-3 ovarian it was 29300 nM.

As to `O=C1C(Nc2ccccn2)=C(I)C(=O)c2ncccc21`, the GI50 was 1010 nM with SNB-75 CNS; 1250 nM in the test on NCI/ADR-RES ovarian; 1370 nM in the test on SF-539 CNS; 1290 nM in the test with OVCAR-8 ovarian; 367 nM in the test with DU-145 prostate; 307 nM in the test with MDA-MB-435. Further, the GI50 was 1530 nM in the test with HCC-2998 colon, 552 nM in the test with CCRF-CEM leukemia, 1070 nM with OVCAR-4 ovarian and 378 nM with OVCAR-3 ovarian. Besides, the concentration for total growth inhibition (TGI) in the test on SNB-75 CNS was 2230 nM; in the test with NCI/ADR-RES ovarian, 4600 nM; in the test on SF-539 CNS it was 2690 nM; in the test on OVCAR-8 ovarian it was 5870 nM; in the test on DU-145 prostate, 1420 nM; with MDA-MB-435 it was 947 nM. In addition, the TGI in the test on HCC-2998 colon was found to be 2980 nM; in the test with CCRF-CEM leukemia it was 5190 nM; with OVCAR-4 ovarian it was 2270 nM; with OVCAR-3 ovarian it was 1600 nM.

On to `COC(=O)c1c2c(c(C)[n+]([O-])c1C)C(=O)C(NCc1ccc(F)c(Cl)c1)=CC2=O`, for which the GI50 in the test with SNB-75 CNS was 2740 nM; in the test with NCI/ADR-RES ovarian it was 2080 nM; in the test on SF-539 CNS it was 1690 nM; in the test on OVCAR-8 ovarian, 2380 nM; with DU-145 prostate, 2440 nM; with MDA-MB-435, 1470 nM. The GI50 with HCC-2998 colon is 2280 nM; with CCRF-CEM leukemia it was 3030 nM; in the test with OVCAR-4 ovarian it was 652 nM; with OVCAR-3 ovarian, 306 nM. In addition, the total growth inhibition concentration (TGI) with SNB-75 CNS turned out to be 9320 nM; in the test on NCI/ADR-RES ovarian, 6920 nM; with SF-539 CNS, 3320 nM; in the test on OVCAR-8 ovarian it was 13900 nM; in the test on DU-145 prostate, 7890 nM; in the test with MDA-MB-435, 2870 nM. The TGI with HCC-2998 colon came to 6660 nM; in the test on CCRF-CEM leukemia it was 22800 nM; with OVCAR-4 ovarian it was 2070 nM; in the test with OVCAR-3 ovarian it was 1240 nM.
